Literature values, collected in patent US20040243224A1, “Methods and compositions for inhibiting narrowing in mammalian vascular pathways” (Medtronic Vascular, Inc., priority 2003, published 2004).

Assays:
Conditions in all cases: stated as known in the art, no data
Ustilago maydis = test system: Ustilago maydis
Tetrahymena furgasoni = test system: Tetrahymena furgasoni
[1] = test system: laboratory tumor cell lines

## COc1cc(O)c2c(c1)[C@H]1O[C@@H]1C[C@H](O)[C@H](O)C(=O)/C=C\C[C@H](C)OC2=O [Hypothemycin, hypothemycin]
Ustilago maydis
  activity against Ustilago maydis: active
Tetrahymena furgasoni
  activity against Tetrahymena furgasoni: active
[1]
  anti-tumor activity on laboratory tumor cell lines: exhibits anti-tumor activity
